Measured values taken from PubChem BioAssay (NCI).
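Exposure lasted 48 hours, with cells grown in 96-well plates and compounds tested at five concentrations. GI50 marks 50% less growth. Definition used: TGI = concentration required for complete inhibition of growth.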

How the values were obtained:
Assay in all cases: NCI tumour cell line growth inhibition, 48 h
IGROV1 ovarian = tested on: IGROV1 ovarian
UACC-257 melanoma = tested on: UACC-257 melanoma
786-0 renal = tested on: 786-0 renal
A498 renal = tested on: A498 renal
COLO 205 colon = tested on: COLO 205 colon
SNB-75 CNS = tested on: SNB-75 CNS
SF-268 CNS = tested on: SF-268 CNS
CAKI-1 renal = tested on: CAKI-1 renal

| SMILES | GI50 (IGROV1 ovarian) [µM] | TGI (IGROV1 ovarian) [µM] | GI50 (UACC-257 melanoma) [µM] | GI50 (786-0 renal) [µM] | TGI (786-0 renal) [µM] | GI50 (A498 renal) [µM] | TGI (A498 renal) [µM] | GI50 (COLO 205 colon) [µM] | TGI (COLO 205 colon) [µM] | GI50 (SNB-75 CNS) [µM] | TGI (SNB-75 CNS) [µM] | GI50 (SF-268 CNS) [µM] | TGI (SF-268 CNS) [µM] | GI50 (CAKI-1 renal) [µM] | TGI (CAKI-1 renal) [µM] | TGI (UACC-257 melanoma) [µM] |
| --- | --- | --- | --- | --- | --- | --- | --- | --- | --- | --- | --- | --- | --- | --- | --- | --- |
| CC1(C)CC[C@]2(C(=O)n3ccnc3)CC[C@]3(C)[C@H](C(=O)C=C4[C@@]5(C)C=C(C#N)C(=O)C(C)(C)[C@@H]5CC[C@]43C)[C@@H]2C1 | < 0.0106 | < 0.0292 | 0.0719 | < 0.01 | 0.0199 | 0.112 | 0.28 | 0.0139 | > 100 | 0.0236 | 0.187 | 0.0164 | > 100 | < 0.01 | 0.0393 |  |
| COc1ccccc1CNCCCN1C(=O)c2ccc3c4c(ccc(c24)C1=O)C(=O)N(CCCNCCCCNCCCCN)C3=O | 2.8 | 9.17 | 0.857 | 2.25 | 14.4 | 0.472 | 4.51 | 0.351 | 1.31 | 1.3 | 3.68 | 0.903 | 6.99 | 3.98 | 46 | 2.22 |
| O=C1OC(c2ccccc2)C2CC3CC4(CCC3CN12)OCCO4 (configuration not stated) |  | > 100 |  |  | > 100 |  | > 100 |  | > 100 |  | > 100 |  | > 100 |  | > 100 | > 100 |
| CSC(=S)N/N=C/c1ccccc1 |  | > 100 |  |  | > 100 |  | > 100 |  | > 100 |  | > 100 |  | > 100 |  | 89.4 | > 100 |
| Cc1cc(Cl)ccc1NC(=O)/C(Cl)=C(/Cl)C(=O)O |  |  |  |  | 51.7 |  |  |  | 78 |  | > 100 |  | > 100 |  | 37.6 | 36.1 |
| O=C(c1ccccc1)c1ccc(Cl)c([N+](=O)[O-])c1 | 7.92 | 23.9 | 6.26 | 21 | 99.2 | 16 | 30.9 | 5.01 | 19.9 | 4.74 | 18.9 | 4.48 | 18 | 5.5 | 20.2 | 21.6 |
| Nc1ncnc2c1c(-c1cccc(OCc3ccccc3)c1)cn2C1CC(CN2CCCC2)C1 (configuration not stated) | 2.92 | 7.5 | 0.867 | 1.72 | 3.34 | 1.72 | 4.66 | 0.331 | 1.47 | 1.24 | 3.19 | 1.94 | 4.61 | 2.08 | 9.27 | 2.18 |
| COc1ccc(S(=O)(=O)N2CCN(C(=O)OCc3ccccc3)CC2C(=O)NO)cc1 (configuration not stated) | 4.09 | > 25 | > 25 | > 25 | > 25 | 24.6 | > 25 | > 25 | > 25 | > 25 | > 25 | > 25 | > 25 | 10.1 | > 25 | > 25 |
| COc1ccc(-c2cn(-c3ccc(Cl)cc3)c(=S)[nH]2)cc1OC | 7.08 | > 100 | > 100 | 6.44 | 91.7 | 3.63 | 53.9 | 5.61 | > 100 | 16.4 | 60.3 | 24.6 | > 100 | 3.24 | > 100 | > 100 |
